{"source": "patent US20250136612A1", "about": "“4',5'-DIHYDROSPIRO[PIPERIDINE-4,7'-THIENO[2,3-C]PYRAN] DERIVATIVES AS INHIBITORS OF APOL1 AND METHODS OF USING SAME” (VERTEX PHARMACEUTICALS INCORPORATED, priority 2022, published 2025)", "data": [{"molecular_target": "T1, APOL1 (Homo sapiens, UniProt O14791)", "T1 sequence (O14791 1-398 S342G/I384M)": "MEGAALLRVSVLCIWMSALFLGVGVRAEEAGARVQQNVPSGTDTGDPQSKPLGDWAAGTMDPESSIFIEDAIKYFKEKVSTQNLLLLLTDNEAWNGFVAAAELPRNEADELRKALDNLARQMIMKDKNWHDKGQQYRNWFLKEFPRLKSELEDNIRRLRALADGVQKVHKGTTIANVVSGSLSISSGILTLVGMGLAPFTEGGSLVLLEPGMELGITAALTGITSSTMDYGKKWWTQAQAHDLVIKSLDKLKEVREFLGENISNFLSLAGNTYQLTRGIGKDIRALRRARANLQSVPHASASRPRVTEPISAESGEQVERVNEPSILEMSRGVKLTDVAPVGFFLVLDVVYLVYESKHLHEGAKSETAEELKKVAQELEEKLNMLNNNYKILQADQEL", "assay": "MultiTox-Fluor Multiplex Cytotoxicity Assay in tet-inducible APOL1 T-REx-HEK293 cells", "type": "cell-based", "conditions": "50 ng/mL tet, 24 hours, ratio of dead to live cells, read-out: IP50 (i.e., IC50 for cell proliferation)", "method": "The MultiTox-Fluor Multiplex Cytotoxicity Assay is a single-reagent-addition, homogeneous, fluorescence assay that measures the number of live and dead cells simultaneously in culture wells. The assay measures cell viability and cytotoxicity by detecting two distinct protease activities. The live-cell protease activity is restricted to intact viable cells and is measured using a fluorogenic, cell-permeant peptide glycyl-phenylalanylamino fluorocoumarin (GF-AFC) substrate. The substrate enters intact cells, where it is cleaved to generate a fluorescent signal proportional to the number of living cells. […] A second, cell-impermeant, fluorogenic peptide substrate (bis-AAF-R110 Substrate) is used to measure dead-cell protease that has been released from cells that have lost membrane integrity. A ratio of dead to live cells is used to normalize data.\nBriefly, the tet-inducible transgenic APOL1 T-REx-HEK293 cell lines were incubated with 50 ng/mL tet to induce APOL1 in the presence of 3-(2-(4-fluorophenyl)-1H-indol-3-yl)-N-((3S,4R)-4-hydroxy-2-oxopyrrolidin-3-yl)propenamide at 10.03, 3.24, 1.13, 0.356, 0.129, 0.042, 0.129, 0.0045, 0.0015, 0.0005 μM in duplicate for 24 hours in a humidified 37° C. incubator. The MultiTox reagent was added to each well and placed back in the incubator for an additional 30 minutes. The plate was read on the EnVision plate reader. A ratio of dead to live cells was used to normalize, and data was imported, analyzed, and fit using Genedata Screener (Basel, Switzerland) software. Data was normalized using percent of control, no tet (100% viability), and 50 ng/mL tet treated (0% viability),and fit using Smart Fit. The reagents, methods, and complete protocol for the MultiTox assay are described below.\nHuman embryonic kidney (HEK293) cell lines containing a tet-inducible expression system (T-REx™; Invitrogen, Carlsbad, CA) and Adeno-associated virus site 1 pAAVS1-Puro-APOL1 G0 or pAAVS1-Puro-APOL1 G1 or pAAVS1-Puro-APOL1 G2 Clones G0 DC2.13, G1 DC3.25, and G2 DC4.44 were grown in a T-225 flask at ˜90% confluency in cell growth media (DMEM, 10% Tet-free FBS, 2 mM L-glutamine, 100 Units/mL penicillin-streptomycin, 5 μg/mL blasticidin S HCl, 1 μg/mL puromycin dihydrochloride). Cells were washed with DPBS and then trypsinized to dissociate from the flask. Media was used to quench the trypsin, cells were then pelleted at 200 g and resuspended in fresh cell assay media (DMEM, 2% Tet-free FBS, 2 mM L-glutamine, 100 Units/mL penicillin-streptomycin). Cells were counted and diluted to 1.17×10^6 cells/mL. 20 μL of cells (23,400/well) were dispensed in every well of a 384-well Poly-D-Lysine coated plate using the Multidrop dispenser. The plates were then incubated at room temperature for one hour.\nTetracycline is needed to induce APOL1 expression. 1 mg/mL tet stock in water was diluted to 250 ng/mL (5×) in cell assay media. 60 μL of cell assay media (no tet control) was dispensed in columns 1 and 24, and 60 μL of 5×tet in 384-PP-round bottom plate was dispensed in columns 2 to 23 with the Multidrop dispenser.\nAssay ready plates from the Global Compound Archive were ordered using template 384_APOL1Cell_DR10n2_50 uM_v3. Compounds were dispensed at 200 nL in DMSO. The final top concentration was 10 μM with a 10 point 3-fold dilution in duplicate in the MultiTox assay.\n20 μL was transferred from the 5×tet plate to the ARP and mixed, then 5 μL of 5×tet and the compounds were transferred to the cell plate and mixed using the Bravo. The cell plate was placed in the humidified 37° C. 5% CO2 incubator for 24 hours.\nThe MultiTox-Fluor Multiplex Cytotoxicity Assay was performed in accordance with the manufacturer's protocol. After cells were incubated with tet and compound for 24 hours, 25 μL of 1×MultiTox reagent was added to each well using the Multidrop dispenser; the plates were placed on a plate shaker (600 rpm) for 2 minutes, then centrifuged briefly and placed back in the 37° C. incubator for 30 minutes. […]", "units": {"IC50": "nM"}, "values": [{"smiles": "Fc1ccc(-n2cc([C@@H]3C[C@]4(CCN3)OCCc3cc(Cl)sc34)nn2)cc1", "note": "[Compound 72]", "IC50": "500 to 1000"}, {"smiles": "O=C1NCc2cc(-n3cc([C@@H]4C[C@]5(CCN4)OCCc4cc(Cl)sc45)nn3)ccc21", "note": "[Compound 61]", "IC50": "100 to 500"}, {"smiles": "Clc1cc2c(s1)[C@@]1(CCN[C@H](c3cn(-c4cccnc4)nn3)C1)OCC2", "note": "[Compound 63]", "IC50": "100 to 500"}, {"smiles": "CCc1cc2c(s1)CCOC21CCNC(C2CC2)C1", "note": "(stereo not shown) [Compound 3, 2′-cyclopropyl-2-ethyl-spiro[6,7-dihydrothieno[3,2-c]pyran-4,4′-piperidine]]", "IC50": "100 to 500"}, {"smiles": "CC1CO[C@]2(CCN[C@H](c3cn(C)nn3)C2)c2cc(Cl)sc21", "note": "(stereo partly shown) [Compound 28]", "IC50": "100 to 500"}, {"smiles": "CN1Cc2cc(-n3cc([C@@H]4C[C@]5(CCN4)OCCc4cc(Cl)sc45)nn3)ccc2C1=O", "note": "[Compound 60]", "IC50": "100 to 500"}, {"smiles": "Cn1cc(C2CC3(CCN2)OCCc2sc(Cl)cc23)nn1", "note": "(stereo not shown) [Compound 11]", "IC50": "500 to 1000"}, {"smiles": "Fc1cccc(-n2cc([C@@H]3C[C@]4(CCN3)OCCc3cc(Cl)sc34)nn2)c1", "note": "[Compound 70]", "IC50": "100 to 500"}, {"smiles": "Cc1cc2c(s1)C1(CCN[C@H](c3cn(C)nn3)C1)OCC2", "note": "(single isomer, unassigned) [Compound 32]", "IC50": "100 to 500"}, {"smiles": "CCc1cc2c(s1)CCOC21CCNC(C2(C)COC2)C1", "note": "(stereo not shown) [Compound 16]", "IC50": "500 to 1000"}, {"smiles": "CCc1cc2c(s1)CCOC21CCNC(c2cn(C)nn2)C1", "note": "(stereo not shown) [Compound 10]", "IC50": "100 to 500"}, {"smiles": "FC(F)Cc1cc2c(s1)C1(CCNC(c3ccccc3)C1)OCC2", "note": "(stereo not shown) [Compound 50]", "IC50": "100 to 500"}, {"smiles": "Cn1cc([C@@H]2CC3(CCN2)OCCc2cc(C4CC4)sc23)nn1", "note": "(stereo partly drawn) [Compound 30, (2S)-2′-cyclopropyl-2-(1-methyl-1H-1,2,3-triazol-4-yl)-4′,5′-dihydrospiro[piperidine-4,7′-thieno[2,3-c]pyran]]", "IC50": "500 to 1000"}, {"smiles": "COC1CO[C@]2(CCN[C@H](c3cn(C)nn3)C2)c2sc(Cl)cc21", "note": "(single isomer, unassigned) [Compound 42]", "IC50": "500 to 1000"}, {"smiles": "NC(=O)c1cc(-n2cc([C@@H]3C[C@]4(CCN3)OCCc3cc(Cl)sc34)nn2)ccc1F", "note": "[Compound 57]", "IC50": "< 100"}, {"smiles": "Cn1cc(C2CC3(CCN2)OCCc2cc(C4CC(F)(F)C4)sc23)nn1", "note": "(stereo not shown) [Compound 46, 2-(3,3-difluorocyclobutyl)-2′-(1-methyltriazol-4-yl)spiro[4,5-dihydrothieno[2,3-c]pyran-7,4′-piperidine]]", "IC50": "100 to 500"}, {"smiles": "FC(F)(F)c1cc2c(s1)CCOC21CCNC(C2CC2)C1", "note": "(stereo not shown) [Compound 21]", "IC50": "100 to 500"}, {"smiles": "CC(O)c1c(C(F)(F)F)sc2c1CCOC21CCN[C@H](c2cn(C)nn2)C1", "note": "(single isomer, unassigned) [Compound 53]", "IC50": "< 100"}, {"smiles": "Cn1cc(C2CC3(CCN2)OCCc2cc(CC(F)F)sc23)nn1", "note": "(stereo not shown) [Compound 49]", "IC50": "< 100"}, {"smiles": "CC(O)c1c(C(F)(F)F)sc2c1CCOC21CCN[C@H](c2cn(C)nn2)C1", "note": "(single isomer, unassigned) [Compound 52]", "IC50": "100 to 500"}, {"smiles": "Clc1cc2c(s1)[C@@]1(CCN[C@H](c3c[nH]nn3)C1)OCC2", "note": "[Compound 77]", "IC50": "500 to 1000"}, {"smiles": "Cn1cc([C@@H]2C[C@]3(CCN2)OCC(O)c2cc(Cl)sc23)nn1", "note": "(stereo partly drawn) [Compound 36, (2S,4S)-2′-chloro-2-(1-methyl-1H-1,2,3-triazol-4-yl)-4′,5′-dihydrospiro[piperidine-4,7′-thieno[2,3-c]pyran]-4′-ol]", "IC50": "100 to 500"}, {"smiles": "Clc1cc2c(s1)[C@@]1(CCN[C@H](c3cn[nH]c3)C1)OCC2", "note": "[Compound 26]", "IC50": "< 100"}, {"smiles": "Cc1cc([C@@H]2C[C@]3(CCN2)OCCc2cc(Cl)sc23)no1", "note": "(single isomer, unassigned) [Compound 23]", "IC50": "100 to 500"}, {"smiles": "CCc1cc2c(s1)CCOC21CCNC(c2ccnnc2)C1", "note": "(stereo not shown) [Compound 15]", "IC50": "500 to 1000"}, {"smiles": "COc1cccc(-n2cc([C@@H]3C[C@]4(CCN3)OCCc3cc(Cl)sc34)nn2)c1", "note": "[Compound 71]", "IC50": "100 to 500"}, {"smiles": "Clc1cc2c(s1)[C@@]1(CCN[C@H](c3cn(-c4ccccc4)nn3)C1)OCC2", "note": "[Compound 55, (2S,4S)-2′-chloro-2-(1-phenyl-1H-1,2,3-triazol-4-yl)-4′,5′-dihydrospiro[piperidine-4,7′-thieno[2,3-c]pyran]]", "IC50": "100 to 500"}, {"smiles": "Cc1cc2c(s1)CCOC21CCNC(C2CC2)C1", "note": "(stereo not shown) [Compound 20]", "IC50": "500 to 1000"}, {"smiles": "NC(=O)c1ccc(-n2cc([C@@H]3C[C@]4(CCN3)OCCc3cc(Cl)sc34)nn2)cc1", "note": "[Compound 59]", "IC50": "100 to 500"}, {"smiles": "Oc1ccccc1-n1cc([C@@H]2C[C@]3(CCN2)OCCc2cc(Cl)sc23)nn1", "note": "[Compound 75]", "IC50": "500 to 1000"}, {"smiles": "Cn1cnc(C2CC3(CCN2)OCCc2cc(Cl)sc23)c1", "note": "(stereo not shown) [Compound 12]", "IC50": "500 to 1000"}, {"smiles": "CNC(=O)c1cc(-n2cc([C@@H]3C[C@]4(CCN3)OCCc3cc(Cl)sc34)nn2)ccc1OC", "note": "[Compound 58]", "IC50": "100 to 500"}, {"smiles": "CCc1cc2c(s1)CCOC21CCNC(c2cnc(C)nc2)C1", "note": "(stereo not shown) [Compound 18]", "IC50": "500 to 1000"}, {"smiles": "Cn1cc(C2CC3(CCN2)OCC(O)c2cc(C4CC(F)(F)C4)sc23)nn1", "note": "(stereo not shown) [Compound 47]", "IC50": "500 to 1000"}, {"smiles": "Oc1ccc(-n2cc([C@@H]3C[C@]4(CCN3)OCCc3cc(Cl)sc34)nn2)cc1", "note": "[Compound 65]", "IC50": "100 to 500"}, {"smiles": "Cn1cc([C@@H]2CC3(CCN2)OCCc2cc(CC(F)(F)F)sc23)nn1", "note": "(stereo partly shown) [Compound 48]", "IC50": "100 to 500"}, {"smiles": "Clc1cc2c(s1)[C@@]1(CCN[C@H](c3cn(-c4ccncc4)nn3)C1)OCC2", "note": "[Compound 64]", "IC50": "100 to 500"}]}]}
